# Reference: ChEMBL document CHEMBL4152291, “Synthesis and biological activities of dithiocarbamates containing 2(5H)-furanone-piperazine” (Eur J Med Chem, 2018)
# Assays:
# HeLa [1] = test: Cytotoxicity against human HeLa cells assessed as inhibition of cell proliferation after 72 hrs by MTT assay; assay type: functional, cell-based
# HeLa [2] = test: Growth inhibition of human HeLa cells at 6.25 ug/ml after 72 hrs by MTT assay relative to control; assay type: functional; conditions: read-out: GI
# HeLa [3] = test: Growth inhibition of human HeLa cells at 12.5 ug/ml after 72 hrs by MTT assay relative to control; assay type: functional; conditions: read-out: GI
# HeLa [4] = test: Growth inhibition of human HeLa cells at 25 ug/ml after 72 hrs by MTT assay relative to control; assay type: functional; conditions: read-out: GI
# HeLa [5] = test: Growth inhibition of human HeLa cells at 50 ug/ml after 72 hrs by MTT assay relative to control; assay type: functional; conditions: read-out: GI
# SMMC-7721 [6] = test: Growth inhibition of human SMMC7721 cells at 0.01 ug/ml after 72 hrs by MTT assay relative to control; assay type: functional; conditions: SMMC-7721, 72 h, read-out: GI
# SMMC-7721 [7] = test: Growth inhibition of human SMMC7721 cells at 0.1 ug/ml after 72 hrs by MTT assay relative to control; assay type: functional; conditions: SMMC-7721, 72 h, read-out: GI
# SMMC-7721 [8] = test: Growth inhibition of human SMMC7721 cells at 0.5 ug/ml after 72 hrs by MTT assay relative to control; assay type: functional; conditions: SMMC-7721, 72 h, read-out: GI
# SMMC-7721 [9] = test: Growth inhibition of human SMMC7721 cells at 2.5 ug/ml after 72 hrs by MTT assay relative to control; assay type: functional; conditions: SMMC-7721, 72 h, read-out: GI
# SMMC-7721 [10] = test: Growth inhibition of human SMMC7721 cells at 5 ug/ml after 72 hrs by MTT assay relative to control; assay type: functional; conditions: SMMC-7721, 72 h, read-out: GI
# [11] = Growth inhibition of human LO2 cells at 0.01 ug/ml after 72 hrs by MTT assay relative to control; assay type: cell-based, L02; conditions: read-out: GI
# [12] = Growth inhibition of human LO2 cells at 0.1 ug/ml after 72 hrs by MTT assay relative to control; assay type: cell-based, L02; conditions: read-out: GI
# [13] = Growth inhibition of human LO2 cells at 0.5 ug/ml after 72 hrs by MTT assay relative to control; assay type: cell-based, L02; conditions: read-out: GI
# [14] = Growth inhibition of human LO2 cells at 2.5 ug/ml after 72 hrs by MTT assay relative to control; assay type: cell-based, L02; conditions: read-out: GI
# [15] = Growth inhibition of human LO2 cells at 5 ug/ml after 72 hrs by MTT assay relative to control; assay type: cell-based, L02; conditions: read-out: GI
# SMMC-7721 [16] = test: Induction of apoptosis in human SMMC7721 cells assessed as live cells at 0.1 ug/ml after 72 hrs by Annexin-V-FITC/propidium iodide staining based flow cytometry (reference value: 92.87 to 93.39%); assay type: functional
# SMMC-7721 [17] = test: Induction of apoptosis in human SMMC7721 cells assessed as early apoptotic cells at 0.1 ug/ml after 72 hrs by Annexin-V-FITC/propidium iodide staining based flow cytometry (reference value: 2.61 to 3.3%); assay type: functional
# SMMC-7721 [18] = test: Induction of apoptosis in human SMMC7721 cells assessed as late apoptotic cells at 0.1 ug/ml after 72 hrs by Annexin-V-FITC/propidium iodide staining based flow cytometry (reference value: 3.34 to 3.62%); assay type: functional
# SMMC-7721 [19] = test: Induction of apoptosis in human SMMC7721 cells assessed as necrotic cells at 0.1 ug/ml after 72 hrs by Annexin-V-FITC/propidium iodide staining based flow cytometry (reference value: 0.39 to 0.5%); assay type: functional
# SMMC-7721 [20] = test: Induction of apoptosis in human SMMC7721 cells assessed as live cells at 0.5 ug/ml after 72 hrs by Annexin-V-FITC/propidium iodide staining based flow cytometry (reference value: 92.87 to 93.39%); assay type: functional
# SMMC-7721 [21] = test: Induction of apoptosis in human SMMC7721 cells assessed as early apoptotic cells at 0.5 ug/ml after 72 hrs by Annexin-V-FITC/propidium iodide staining based flow cytometry (reference value: 2.61 to 3.3%); assay type: functional
# SMMC-7721 [22] = test: Induction of apoptosis in human SMMC7721 cells assessed as late apoptotic cells at 0.5 ug/ml after 72 hrs by Annexin-V-FITC/propidium iodide staining based flow cytometry (reference value: 3.34 to 3.62%); assay type: functional
# SMMC-7721 [23] = test: Induction of apoptosis in human SMMC7721 cells assessed as necrotic cells at 0.5 ug/ml after 72 hrs by Annexin-V-FITC/propidium iodide staining based flow cytometry (reference value: 0.39 to 0.5%); assay type: functional
# SMMC-7721 [24] = test: Induction of apoptosis in human SMMC7721 cells assessed as live cells at 5 ug/ml after 72 hrs by Annexin-V-FITC/propidium iodide staining based flow cytometry (reference value: 92.87 to 93.39%); assay type: functional
# SMMC-7721 [25] = test: Induction of apoptosis in human SMMC7721 cells assessed as early apoptotic cells at 5 ug/ml after 72 hrs by Annexin-V-FITC/propidium iodide staining based flow cytometry (reference value: 2.61 to 3.3%); assay type: functional
# SMMC-7721 [26] = test: Induction of apoptosis in human SMMC7721 cells assessed as late apoptotic cells at 5 ug/ml after 72 hrs by Annexin-V-FITC/propidium iodide staining based flow cytometry (reference value: 3.34 to 3.62%); assay type: functional
# SMMC-7721 [27] = test: Induction of apoptosis in human SMMC7721 cells assessed as necrotic cells at 5 ug/ml after 72 hrs by Annexin-V-FITC/propidium iodide staining based flow cytometry (reference value: 0.39 to 0.5%); assay type: functional
# SMMC-7721 [28] = test: Induction of apoptosis in human SMMC7721 cells assessed as increase in early apoptotic cells after 72 hrs by Annexin-V-FITC/propidium iodide staining based flow cytometry; assay type: functional, cell-based
# SMMC-7721 [29] = test: Induction of apoptosis in human SMMC7721 cells assessed as increase in late apoptotic cells after 72 hrs by Annexin-V-FITC/propidium iodide staining based flow cytometry; assay type: functional, cell-based
# HeLa [30] = test: Growth inhibition of human HeLa cells at 100 ug/ml after 72 hrs by MTT assay relative to control; assay type: functional; conditions: read-out: GI
# L02 = test: Cytotoxicity against human LO2 cells assessed as inhibition of cell proliferation after 72 hrs by MTT assay; assay type: cell-based; conditions: L02, 72 h
# HeLa [31] = test: Cytotoxicity against human HeLa cells; assay type: functional, cell-based
SMILES,Activity (HeLa [1]),IC50 (HeLa [1]),inhibition of growth at 6.25 µg/mL (HeLa [2]),inhibition of growth at 12.5 µg/mL (HeLa [3]),inhibition of growth at 25 µg/mL (HeLa [4]),inhibition of growth at 50 µg/mL (HeLa [5]),inhibition of growth at 0.01 µg/mL (SMMC-7721 [6]),inhibition of growth at 0.1 µg/mL (SMMC-7721 [7]),inhibition of growth at 0.5 µg/mL (SMMC-7721 [8]),inhibition of growth at 2.5 µg/mL (SMMC-7721 [9]),inhibition of growth at 5 µg/mL (SMMC-7721 [10]),"inhibition at 72 h, 0.01 ug/ml [11]","inhibition at 72 h, 0.1 ug/ml [12]","inhibition at 72 h, 0.5 ug/ml [13]","inhibition at 72 h, 2.5 ug/ml [14]","inhibition at 72 h, 5 ug/ml [15]",inhibition of growth at 100 µg/mL (HeLa [30]),other results
CC(C)[C@@H]1CC[C@@H](C)C[C@H]1O[C@H]1OC(=O)C(Br)=C1N1CCN(C(=S)SCc2ccccc2)CC1,Dose-dependent effect,260 nM,32%,37.5%,43.5%,46.4%,9.09%,17%,20.9%,39.2%,75%,-3.31%,7.48%,15%,15.6%,25.8%,45%,Activity (SMMC-7721 [16]): 85.91 - 89.74%; Activity (SMMC-7721 [17]): 2.75 - 3.41%; Activity (SMMC-7721 [18]): 5.56 - 7.39%; Activity (SMMC-7721 [19]): 1.29 - 4.56%; Activity (SMMC-7721 [20]): 81.84 - 83.6%; Activity (SMMC-7721 [21]): 4.01 - 5.07%; Activity (SMMC-7721 [22]): 8.98 - 11.36%; Activity (SMMC-7721 [23]): 2.17 - 4.01%; Activity (SMMC-7721 [24]): 64.53 - 65.54%; Activity (SMMC-7721 [25]): 6.06 - 6.14%; Activity (SMMC-7721 [26]): 18.99 - 20.66%; Activity (SMMC-7721 [27]): 7.72 - 9.59%; Activity (SMMC-7721 [28]): Dose-dependent effect; Activity (SMMC-7721 [29]): Dose-dependent effect
CC[C@]1(O)C[C@H]2CN(CCc3c([nH]c4ccccc34)[C@@](C(=O)OC)(c3cc4c(cc3OC)N(C=O)[C@H]3[C@@](O)(C(=O)OC)[C@H](OC(C)=O)[C@]5(CC)C=CCN6CC[C@]43[C@@H]65)C2)C1 [VINCRISTINE],,,,,,,12.3%,17.7%,23.9%,45.7%,68.5%,1.6%,1.39%,7.26%,11.5%,16.5%,,
COC(=O)CSC(=S)N1CCN(C2=C(Br)C(=O)O[C@@H]2O[C@@H]2C[C@H](C)CC[C@H]2C(C)C)CC1,Dose-dependent effect,320 nM,8.57%,10.9%,11.3%,35.3%,4.41%,9.68%,21.4%,40.1%,64.5%,0.87%,6.98%,11.1%,15%,26.6%,36.9%,
C=CCSC(=S)N1CCN(C2=C(Br)C(=O)O[C@@H]2O[C@@H]2C[C@H](C)CC[C@H]2C(C)C)CC1,Dose-dependent effect,60 nM,45.6%,44.5%,41.7%,53.8%,7.87%,17%,21%,40.7%,67.4%,-1.9%,5.21%,9.79%,11.2%,12.9%,57.4%,IC50 (L02): 45.8 µM
Nc1ccn([C@@H]2O[C@H](CO)[C@@H](O)[C@@H]2O)c(=O)n1 [CYTARABINE],,,,,,,13%,16.1%,24%,44.5%,63.1%,-1.76%,3.02%,13.3%,18.8%,25.4%,,IC50 (HeLa [31]): 950 nM
